Paper PMC5537347, “A short D-enantiomeric antimicrobial peptide with potent immunomodulatory and antibiofilm activity against multidrug-resistant Pseudomonas aeruginosa and Acinetobacter baumannii” (Scientific Reports, 2017)
In brackets after ≈: the same amount, converted by molar mass. Where two headings read alike, the source gives them in different places. Peptide text beside a SMILES is read from it.

Assays:
[1] = system: C. elegans strain glp-4;sek 1; test: Toxicity of peptides in uninfected C. elegans; type: in vivo, Caenorhabditis elegans; settings: worms grown four days with peptide; D-RR4 and colistin at 8 × MIC
Description: To test the efficacy of the synthetic peptides to protect against infections in vivo, we utilized a C. elegans model of bacterial infection. This model has been used extensively for early-stage evaluation of promising antimicrobials, [35], [36]. Initially, the lethal dose of D-RR4 against uninfected nematodes was determined.
(A) Evaluation of toxicity of peptides in Caenorhabditis elegans. C. elegans strain glp-4;sek 1 was grown for four days in the presence of peptides at different concentrations. Worms were monitored daily and the live worms were counted. Results are expressed as a Kaplan-Meier survival curve. (B) Evaluation of antimicrobial activity of peptides to reduce the bacterial CFU inside infected Caenorhabditis elegans. C. elegans strain glp-4; sek 1 were infected with P. aeruginosa PAO1, colistin-resistant P. aeruginosa 1109, or A. baumannii ATCC BAA-1605. […] After treatment, worms were lysed and bacteria were counted. One asterisk (*) indicates significant difference with the negative control. Two asterisks (**) indicates significant difference with the monotherapy treatment (P < 0.05). Results are expressed as means from three biological replicates ± standard deviation. (C) Efficacy of peptides in a Caenorhabditis elegans model of bacterial infection. […] Worms were monitored daily and the live worms were counted. Results are expressed as a Kaplan-Meier survival curve. C. elegans receiving no treatment served as a negative control.

human red blood cells = test: Hemolysis assay; type: cell-based; settings: for HC50: red cells of human
Description: Next, we assessed the hemolytic activity of the peptides on human red blood cells (RBCs).
Peptides were assayed for hemolytic activity against human red blood cells, as described previously.

[2] = system: murine macrophages (J774.1A); test: Cytotoxicity, MTS assay; settings: 24 h
Description: (§1) A significant limitation for translating AMPs into clinical applications is their toxicity to host (mammalian) cells. Herein, we evaluated the cytotoxic effects of our peptide constructs against murine macrophages (J774.1A) and human keratinocytes (HaCaT cells), via the MTS assay.
(§2) The peptides were assayed for potential in vitro toxicity against human keratinocytes (HaCaT) and murine macrophage cells (J774A.1), as described before, with the following modifications. Cells were treated with peptides at different concentrations for 24 hours. The therapeutic index of the peptides was calculated as the ratio of mammalian EC50 (the concentration of peptide that inhibited growth of 50% of the mammalian cells) to the MIC50 of peptides against bacteria.

[3] = system: human keratinocytes (HaCaT cells); test: Cytotoxicity, MTS assay; settings: 24 h
Description: as §1, §2

[4] = system: P. aeruginosa and A. baumannii isolates
Description: (§3) The broth microdilution technique was utilized to assess the MIC of designed peptides according to the guidelines of the Clinical and Laboratory Standards Institute (CLSI)[37].

[5] = system: colistin-resistant P. aeruginosa isolated from cystic fibrosis patients; settings: colistin-resistant isolated from cystic fibrosis patients
Description: as §3

[6] = system: LPS-induced activation of the LAL enzyme (Limulus amoebocyte lysate); test: Binding of peptides to lipopolysaccharide (LAL assay); type: biochemical; settings: one EU of LPS, 37 °C, 30 minutes
Description: (§4) Figure 3 Ability of peptides to neutralize LPS and reduce inflammatory cytokines expression. (A) LPS binding activity of peptides. Peptides at different concentrations were incubated with one endotoxin unit (EU) of LPS at 37 °C for 30 minutes. […] The binding of peptides with LPS is expressed as percent change relative to the untreated samples. (B) Anti-inflammatory effect of peptides on LPS-stimulated macrophages. J774A.1 cells were stimulated with LPS (150 ng/mL final concentration) in the presence of different concentrations of peptides. Cells stimulated with LPS alone and untreated cells served as controls. Cells were incubated for six hours at 37 °C before the supernatant from each treatment group was collected. Detection of tumor necrosis factor-α (TNF-α) and interleukin-6 (IL-6) in supernatants was determined using ELISA. Cytokine levels are expressed as percent change relative to the LPS-stimulated control. Statistical analysis was calculated using one-way ANOVA, with post hoc Tukey’s multiple comparisons test. P < 0.05 was considered significant. One asterisk (*) indicates significant difference with the negative control.
To determine the peptides’ ability to bind to LPS, a Limulus amoebocyte lysate (LAL) kit (Genscript, USA Inc.) was utilized, as described in previous reports. The peptides were dissolved in pyrogen-free water and serially diluted in the same solvent. The peptides were then incubated with one endotoxin unit (EU) of LPS at 37 °C for 30 minutes in order to permit the peptides to bind LPS. The reaction mixture (50 μL) was added to 50 μL of LAL reagent, and further incubated for 10 minutes. Next, 100 μL of LAL chromogenic substrate was added. The mixture was incubated at 37 °C for six minutes. The optical density (at 545 nm) was determined using a microplate reader. Colistin was used as a positive control. The binding of peptides with LPS was expressed as the percent change relative to the untreated control.

TNF-α = test: Anti-inflammatory effect on LPS-stimulated macrophages, ELISA; type: cell-based, murine; settings: J774A.1 cells, LPS 150 ng/mL, six hours
Description: as §4
(§5) To assess the anti-inflammatory effect of our peptides on LPS-stimulated macrophages, J774A.1 cells were seeded and incubated as described above (for toxicity assessment). Next, the cells were stimulated with LPS (150 ng/ml final concentration) in the presence of different concentrations of peptides (RR and D-RR4). Cells stimulated with LPS alone and untreated cells served as controls. Cells were incubated for six hours at 37 °C and the supernatant from each treatment was collected and stored at −20 °C until use. Tumor necrosis factor-α (TNF-α) and interleukin-6 (IL-6) present in the supernatant was quantified using ELISA, as described previously. Cytokine levels were presented as the percent change relative to the LPS-stimulated control, using triplicate samples for each treatment condition.

IL-6 = test: as above; type: cell-based, murine; settings: J774A.1 cells, LPS 150 ng/mL, six hours
Description: as §4, §5

[7] = system: P. aeruginosa PAO1 biofilm; test: Disruption of established biofilms, microtiter dish crystal violet assay; type: cell-based; settings: 32 × MIC, mature (24 hour) biofilm, 24 hours at 37 °C, crystal violet OD 595 nm
Description: Figure 1 Efficacy of peptides on established biofilms of P. aeruginosa PAO1 and A. baumannii ATCC BAA-1605. […] After incubation, wells were washed and biofilms were stained with 0.5% (w/v) crystal violet for 30 minutes. The dye was solubilized with ethanol (95%) and the optical density (595 nm) of the biofilm mass was measured. Experiments were repeated twice independently and the average values are reported.
To examine the peptides’ ability to disrupt bacterial biofilms, the microtiter dish biofilm formation assay was employed[41]–[43].

Compound	HC50 (human red blood cells) [µM]	EC50 [2] [µM]	EC50 [3] [µM]	MIC90 [4] [µM]	MIC50 [5] [µM]	MIC90 [5] [µM]	further results
CC[C@H](C)[C@H](NC(=O)CN)C(=O)NCC(=O)N[C@@H](C)C(=O)N[C@H](C(=O)N[C@@H](CC(C)C)C(=O)N[C@@H](CCCCN)C(=O)N[C@H](C(=O)N[C@@H](CC(C)C)C(=O)N[C@H](C(=O)N[C@H](C(=O)NCC(=O)N[C@@H](CC(C)C)C(=O)N1CCC[C@H]1C(=O)N[C@@H](C)C(=O)N[C@@H](CC(C)C)C(=O)N[C@H](C(=O)N[C@@H](CO)C(=O)N[C@@H](Cc1c[nH]c2ccccc12)C(=O)N[C@H](C(=O)N[C@@H](CCCCN)C(=O)N[C@@H](CCCNC(=N)N)C(=O)N[C@@H](CCCCN)C(=O)N[C@@H](CCCNC(=N)N)C(=O)N[C@@H](CCC(N)=O)C(=O)N[C@@H](CCC(N)=O)C(N)=O)[C@@H](C)CC)[C@@H](C)CC)[C@@H](C)O)[C@@H](C)O)C(C)C)C(C)C [Melittin]	–	–	–	–	–	–	toxicity to uninfected worms [1]: completely killed C. elegans after 3 days
CC[C@H](C)[C@H](NC(=O)[C@H](CCCCN)NC(=O)[C@H](CCCCN)NC(=O)[C@H](Cc1c[nH]c2ccccc12)NC(=O)[C@@H](NC(=O)[C@H](CCCCN)NC(=O)[C@@H](NC(=O)[C@H](CCCNC(=N)N)NC(=O)[C@H](CCCNC(=N)N)NC(=O)[C@H](CCCCN)NC(=O)[C@@H](N)Cc1c[nH]c2ccccc12)[C@@H](C)CC)[C@@H](C)CC)C(=O)N[C@@H](CCCNC(=N)N)C(=O)O [RR1] (H-WKRRIKIWKKIR-OH; N-terminus and C-terminus assumed)	> 256	> 256	> 256	>256	>128	>128	MIC against all tested bacterial strains [4]: > 256 µM; MIC50 ([4]; MIC that inhibited growth of 50% of all isolates (Table 2)): > 256 µM; MIC [5]: >128 µM
CC[C@H](C)[C@H](NC(=O)[C@H](Cc1c[nH]c2ccccc12)NC(=O)[C@H](CCCCN)NC(=O)[C@H](CCCCN)NC(=O)[C@@H](NC(=O)[C@H](CCCNC(=N)N)NC(=O)[C@H](CCCNC(=N)N)NC(=O)[C@@H](NC(=O)[C@@H](N)Cc1c[nH]c2ccccc12)[C@@H](C)CC)[C@@H](C)CC)C(=O)N[C@@H](CCCNC(=N)N)C(=O)N[C@@H](CCCNC(=N)N)C(=O)N[C@H](C(=O)N[C@@H](Cc1c[nH]cn1)C(=O)N[C@@H](CCCCN)C(=O)O)C(C)C [RR2] (H-WIRRIKKWIRRVHK-OH; N-terminus and C-terminus assumed)	256	128	64	8 (≈ 15.8 µg/mL)	32 (≈ 63.2 µg/mL)	32 (≈ 63.2 µg/mL)	Therapeutic index (TI) RBCs (human red blood cells): 64; MIC50 [4]: 4 µM (≈ 7.9 µg/mL)
CC[C@H](C)[C@H](NC(=O)[C@H](CCCNC(=N)N)NC(=O)[C@H](CCCNC(=N)N)NC(=O)[C@H](CC(C)C)NC(=O)[C@@H](N)Cc1c[nH]c2ccccc12)C(=O)N[C@@H](CCCCN)C(=O)N[C@@H](C)C(=O)N[C@@H](Cc1c[nH]c2ccccc12)C(=O)N[C@@H](CC(C)C)C(=O)N[C@@H](CCCNC(=N)N)C(=O)N[C@@H](CCCNC(=N)N)C(=O)N[C@@H](CCCCN)C(=O)N[C@@H](CCCNC(=N)N)C(=O)N[C@@H](CCCCN)C(=O)O [RR3] (H-WLRRIKAWLRRKRK-OH; N-terminus and C-terminus assumed)	> 256	128	128	16 (≈ 31.5 µg/mL)	16 (≈ 31.5 µg/mL)	32 (≈ 62.9 µg/mL)	Therapeutic index (TI) RBCs (human red blood cells): 64; MIC50 [4]: 8 µM (≈ 15.7 µg/mL)
CC[C@H](C)[C@H](NC(=O)[C@H](CCCNC(=N)N)NC(=O)[C@H](CCCNC(=N)N)NC(=O)[C@H](CC(C)C)NC(=O)[C@@H](N)Cc1c[nH]c2ccccc12)C(=O)N[C@@H](CCCCN)C(=O)N[C@@H](C)C(=O)N[C@@H](Cc1c[nH]c2ccccc12)C(=O)N[C@@H](CC(C)C)C(=O)N[C@@H](CCCNC(=N)N)C(=O)N[C@@H](CCCNC(=N)N)C(=O)O [RR] (H-WLRRIKAWLRR-OH; N-terminus and C-terminus assumed)	–	–	–	–	–	–	inhibition of LPS-induced activation of the LAL enzyme ([6]; 5 µM peptide): 21.3%; inhibition of LPS-induced activation of the LAL enzyme ([6]; 10 µM peptide): 43.2%; inhibition of LPS-induced activation of the LAL enzyme ([6]; 15 µM peptide): 59.6%; inhibition of LPS-induced activation of the LAL enzyme ([6]; 20 µM peptide): 82.4%; decrease of TNF-α production (TNF-α; 10 µM): 24.4%; decrease of TNF-α production (TNF-α; 20 µM): 84.0%; decrease of IL-6 production (IL-6; 10 µM): 75.4%; decrease of IL-6 production (IL-6; 20 µM): 96.5%
CNC(C)C1CCC(N)C(OC2C(N)CC(N)C(OC3OCC(C)(O)C(NC)C3O)C2O)O1 (stereo not drawn) [gentamicin]	–	–	–	–	–	–	biofilm mass disrupted [7]: 50%
NC[C@H]1O[C@H](O[C@H]2[C@H](O)[C@@H](O[C@H]3O[C@H](CO)[C@@H](O)[C@H](N)[C@H]3O)[C@H](N)C[C@@H]2N)[C@H](N)C[C@@H]1O [tobramycin]	–	–	–	–	–	–	biofilm mass disrupted [7]: 50%
